# Activity calls are given as the source filed them. The rule behind the calls is not given here.
# Key:
# MDA-MB-231 [1] = assay: Induction of apoptosis in human MDA-MB-231 cells assessed as early apoptotic cells at 5 uM after 24 hrs by AnnexinV-FITC/PI staining based flow cytometry analysis (reference value: 2.63%); type: functional
# MDA-MB-231 [2] = assay: Induction of apoptosis in human MDA-MB-231 cells assessed as late apoptotic cells at 5 uM after 24 hrs by AnnexinV-FITC/PI staining based flow cytometry analysis (reference value: 0.84%); type: functional
# MDA-MB-468 [3] = assay: Induction of apoptosis in human MDA-MB-468 cells assessed as viable cells at 10 uM after 24 hrs by AnnexinV-FITC/PI staining based flow cytometry analysis (reference value: 95.1 to 96.3%); type: functional; conditions: read-out: Activity
# MDA-MB-468 [4] = assay: Induction of autophagy in human MDA-MB-468 cells assessed as reduction in p62 protein level at 2.5 to 10 uM incubated for 24 hrs by Western blot analysis; type: functional, cell-based; conditions: dose 2.5-10 µM
# A549 = assay: cells; conditions: Homo sapiens, A549, 24 h
# Description: Antiproliferative activity against human A549 cells assessed as reduction in cell viability incubated for 24 hrs by MTT assay
smiles,measurement,setting,value
C/C(=N\NC(=O)c1cccc(Br)c1)c1ccc(C(=O)Nc2nc3ccccc3[nH]2)cc1,Activity,MDA-MB-231 [1],10.5%
same,Activity,MDA-MB-231 [2],2.3%
same,viability at 10 µM,MDA-MB-468 [3],60.5%
same,Activity,MDA-MB-468 [4],Active
same,IC50,A549,6.48 µM

# — ChEMBL document CHEMBL4819087, “Identification and optimization of 3-bromo-N'-(4-hydroxybenzylidene)-4-methylbenzohydrazide derivatives as mTOR inhibitors that induce autophagic cell death and apoptosis in triple-negative breast cancer” (Eur J Med Chem, 2021)
